Each compound was assayed against T1, Human plasma kallikrein (Homo sapiens, UniProt P03952) (assay: Plasma Kallikrein Assay). Conditions: purified Human plasma kallikrein 0.5 nM, substrate Acetyl-K-P-R-AFC, pH 7.4.
T1 construct: yields a heavy chain (371 amino acids) and a light chain (248 amino acids); purchased Enzyme Research Laboratories
Assay type: biochemical
Procedure: The effectiveness of a compound of the present invention as an inhibitor of plasma kallikrein can be determined using a relevant purified serine protease, and an appropriate synthetic substrate. The rate of hydrolysis of the chromogenic or fluorogenic substrate by the relevant serine protease was measured both in the absence and presence of compounds of the present invention. Assays were conducted at rt or at 37° C. […] A decrease in the rate of fluorescence change in the presence of inhibitor is indicative of enzyme inhibition. Such methods are known to one skilled in the art. The results of this assay are expressed as the half-maximal inhibitory concentrations (IC50), or the inhibitory constant, Ki.
Plasma kallikrein determinations were made in 50 mM HEPES buffer at pH 7.4 containing 150 mM NaCl, 5 mM CaCl2), and 0.1% PEG 8000 (polyethylene glycol; Fisher Scientific). […]
Times required to achieve equilibration between enzyme and inhibitor were determined in control experiments. The reactions were performed under linear progress curve conditions and fluorescence increase measured at 405 Ex/510 Em nm. […] IC50 was determined by inflection point from a four parameter logistic curve fit. Ki was calculated using the Cheng Prusoff equation, Ki=IC50/(1+([S]/Km)).

T1 sequence (P03952 391-638 limits assumed): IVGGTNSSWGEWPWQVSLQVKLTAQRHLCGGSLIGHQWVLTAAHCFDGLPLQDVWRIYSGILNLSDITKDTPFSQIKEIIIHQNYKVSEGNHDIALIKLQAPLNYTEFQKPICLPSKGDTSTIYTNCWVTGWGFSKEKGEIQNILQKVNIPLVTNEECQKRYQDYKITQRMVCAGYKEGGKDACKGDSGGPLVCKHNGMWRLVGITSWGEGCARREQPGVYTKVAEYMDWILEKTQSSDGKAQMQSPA
T1 sequence (P03952 20-390 partner limits assumed): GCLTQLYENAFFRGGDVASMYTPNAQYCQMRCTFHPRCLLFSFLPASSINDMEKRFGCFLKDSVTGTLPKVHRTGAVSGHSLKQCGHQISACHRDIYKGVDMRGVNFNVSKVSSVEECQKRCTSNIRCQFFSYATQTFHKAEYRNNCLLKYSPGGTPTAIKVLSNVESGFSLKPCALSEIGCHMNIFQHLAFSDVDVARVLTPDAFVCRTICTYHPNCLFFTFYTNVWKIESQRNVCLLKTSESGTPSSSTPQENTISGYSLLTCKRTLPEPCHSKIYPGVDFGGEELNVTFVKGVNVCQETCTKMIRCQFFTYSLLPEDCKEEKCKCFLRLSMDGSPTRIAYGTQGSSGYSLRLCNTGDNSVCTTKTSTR

IC50 [nM]	SMILES
49.5	CC(=O)N1CC[C@@H]2CN(c3ccc(Cn4cc(NC(=O)c5cncc(-c6c(C(F)F)ccc(Cl)c6F)n5)cn4)cn3)[C@@H]2C1 [Example 133, N-(1-((6-((1S,6R)-3-Acetyl-3,8-diazabicyclo[4.2.0]octan-8-yl)pyridin-3-yl)methyl)-1H-pyrazol-4-yl)-6-(3-chloro-6-(difluoromethyl)-2-fluorophenyl)pyrazine-2-carboxamide]
1.1	O=C(Nc1cnn(Cc2cnc(N3CCCC3CN3CCOCC3)nc2)c1)c1cncc(-c2c(C(F)F)ccc(Cl)c2F)n1 (stereo not drawn) [Example 153, 6-(3-Chloro-6-(difluoromethyl)-2-fluorophenyl)-N-(1-((2-(2-(morpholinomethyl)pyrrolidin-1-yl)pyrimidin-5-yl)methyl)-1H-pyrazol-4-yl)pyrazine-2-carboxamide]
1.6	CC(c1cnc(N2CC[C@H]2CN2CC(O)C2)nc1)n1cc(NC(=O)c2cncc(-c3c(C(F)F)ccc(Cl)c3F)n2)cn1 (stereo partly drawn) [Example 170, 6-(3-Chloro-6-(difluoromethyl)-2-fluorophenyl)-N-(1-(1-(2-((S)-2-((3-hydroxyazetidin-1-yl)methyl)azetidin-1-yl)pyrimidin-5-yl)ethyl)-1H-pyrazol-4-yl)pyrazine-2-carboxamide]
1.4	CC(c1cnc(N2CC[C@H]2[C@@H](C)N2CC[C@H](O)C2)nc1)n1cc(NC(=O)c2cncc(-c3c(C(F)F)ccc(Cl)c3F)n2)cn1 (stereo partly drawn) [Example 186, 6-(3-Chloro-6-(difluoromethyl)-2-fluorophenyl)-N-(1-(1-(2-((S)-2-((R)-1-((S)-3-hydroxypyrrolidin-1-yl)ethyl)azetidin-1-yl)pyrimidin-5-yl)ethyl)-1H-pyrazol-4-yl)pyrazine-2-carboxamide]
4.9	CC(c1cnc(N2CC[C@H]2CN2CC(F)C2)nc1)n1cc(NC(=O)c2cncc(-c3c(C(F)F)ccc(Cl)c3F)n2)cn1 (stereo partly drawn) [Example 171, 6-(3-Chloro-6-(difluoromethyl)-2-fluorophenyl)-N-(1-(1-(2-((S)-2-((3-fluoroazetidin-1-yl)methyl)azetidin-1-yl)pyrimidin-5-yl)ethyl)-1H-pyrazol-4-yl)pyrazine-2-carboxamide]
9.3	O=C(Nc1cnn(Cc2cnc(N3CCCC3CNCC(F)F)nc2)c1)c1cncc(-c2c(C(F)F)ccc(Cl)c2F)n1 (stereo not drawn) [Example 157, 6-(3-Chloro-6-(difluoromethyl)-2-fluorophenyl)-N-(1-((2-(2-(((2,2-difluoroethyl)amino)methyl)pyrrolidin-1-yl)pyrimidin-5-yl)methyl)-1H-pyrazol-4-yl)pyrazine-2-carboxamide]
1.8	CC(c1cnc(N2CC[C@H]2CN2CC(O)(C3CC3)C2)nc1)n1cc(NC(=O)c2cncc(-c3c(C(F)F)ccc(Cl)c3F)n2)cn1 (stereo partly drawn) [Example 172, 6-(3-Chloro-6-(difluoromethyl)-2-fluorophenyl)-N-(1-(1-(2-((S)-2-((3-cyclopropyl-3-hydroxyazetidin-1-yl)methyl)azetidin-1-yl)pyrimidin-5-yl)ethyl)-1H-pyrazol-4-yl)pyrazine-2-carboxamide]
4.2	CC(c1cnc(N2CC[C@H]2CN[C@@H]2CCC[C@H]2O)nc1)n1cc(NC(=O)c2cncc(-c3c(C(F)F)ccc(Cl)c3F)n2)cn1 (stereo partly drawn) [Example 181, 6-(3-Chloro-6-(difluoromethyl)-2-fluorophenyl)-N-(1-(1-(2-((S)-2-((((1R,2R)-2-hydroxycyclopentyl)amino)methyl)azetidin-1-yl)pyrimidin-5-yl)ethyl)-1H-pyrazol-4-yl)pyrazine-2-carboxamide]

The next lines start with the compound.

SMILES	IC50 [nM]
CC(c1cnc(N2CCN(C)C(=O)C2)nc1)n1cc(NC(=O)c2cncc(-c3c(C(F)F)ccc(Cl)c3F)n2)cn1 (stereo not drawn) [Example 95, 6-(3-Chloro-6-(difluoromethyl)-2-fluorophenyl)-N-(1-(1-(2-(4-methyl-3-oxopiperazin-1-yl)pyrimidin-5-yl)ethyl)-1H-pyrazol-4-yl)pyrazine-2-carboxamide]	21.7
N#Cc1ccc(Cl)c(F)c1-c1cncc(C(=O)Nc2cnn(Cc3ccc(N4CCC4)nc3)c2)n1 [Example 52, N-(1-((6-(Azetidin-1-yl)pyridin-3-yl)methyl)-1H-pyrazol-4-yl)-6-(3-chloro-6-cyano-2-fluorophenvl)pyrazine-2-carboxamide]	17.1
CC(C)(O)CC1CCCN1c1ncc(Cn2cc(NC(=O)c3cncc(-c4c(C(F)F)ccc(Cl)c4F)n3)cn2)cn1 (stereo not drawn) [Example 106, 6-(3-Chloro-6-(difluoromethyl)-2-fluorophenyl)-N-(1-((2-(2-(2-hydroxy-2-methylpropyl)pyrrolidin-1-yl)pyrimidin-5-yl)methyl)-1H-pyrazol-4-yl)pyrazine-2-carboxamide]	41.3
CC1C2CC2CN1c1ncc(C(CO)n2cc(NC(=O)c3cncc(-c4c(C(F)F)ccc(Cl)c4F)n3)cn2)cn1 (single isomer, unassigned) [Example 50, 6-(3-Chloro-6-(difluoromethyl)-2-fluorophenyl)-N-(1-((S or R)-2-hydroxy-1-(2-((1R,2S,5S or 1S,2R, 5R)-2-methyl-3-azabicyclo[3.1.0]hexan-3-yl)pyrimidin-5-yl)ethyl)-1H-pyrazol-4-yl)pyrazine-2-carboxamide]	1120
Cc1nc(N2CCC2)cnc1Cn1cc(NC(=O)c2cncc(-c3c(C(F)F)ccc(Cl)c3F)n2)cn1 [Example 24, N-(1-((5-(Azetidin-1-yl)-3-methylpyrazin-2-yl)methyl)-1H-pyrazol-4-yl)-6-(3-chloro-6-(difluoromethyl)-2-fluorophenyl)pyrazine-2-carboxamide]	26.8
CC(c1cnc(N2CC3CC3C2)nc1)n1cc(NC(=O)c2nc(-c3c(C(F)F)ccc(Cl)c3F)cnc2N)cn1 (single isomer, unassigned) [Example 33, N-(1-((1S or 1R)-1-(2-(3-azabicyclo[3.1.0]hexan-3-yl)pyrimidin-5-yl)ethyl)-1H-pyrazol-4-yl)-3-amino-6-(3-chloro-6-(difluoromethyl)-2-fluorophenyl)pyrazine-2-carboxamide]	26.5
CC(=O)N1CC[C@H]2CN(c3ccc(Cn4cc(NC(=O)c5cncc(-c6c(C(F)F)ccc(Cl)c6F)n5)cn4)cn3)[C@H]2C1 [Example 131, N-(1-((6-((1R,6S)-3-Acetyl-3,8-diazabicyclo[4.2.0]octan-8-yl)pyridin-3-yl)methyl)-1H-pyrazol-4-yl)-6-(3-chloro-6-(difluoromethyl)-2-fluorophenyl)pyrazine-2-carboxamide]	37.6
COC[C@@H]1CCCN1c1ccc(Cn2cc(NC(=O)c3cncc(-c4c(C(F)F)ccc(Cl)c4F)n3)cn2)cn1 [Example 120, (S)-6-(3-Chloro-6-(difluoromethyl)-2-fluorophenyl)-N-(1-((6-(2-(methoxymethyl)pyrrolidin-1-yl)pyridin-3-yl)methyl)-1H-pyrazol-4-yl)pyrazine-2-carboxamide]	17.8
CC(c1cnc(N2Cc3cncnc3C2)nc1)n1cc(NC(=O)c2cncc(-c3c(C(F)F)ccc(Cl)c3F)n2)cn1 (stereo not drawn) [Example 78, 6-(3-Chloro-6-(difluoromethyl)-2-fluorophenyl)-N-(1-(1-(2-(5,7-dihydro-6H-pyrrolo[3,4-d]pyrimidin-6-yl)pyrimidin-5-yl)ethyl)-1H-pyrazol-4-yl)pyrazine-2-carboxamide]	5.6
Nc1ncc(-c2c(C(F)F)ccc(Cl)c2F)nc1C(=O)Nc1cnn(Cc2cnc(N3CCC3)nc2)c1 [Example 3, 3-Amino-N-(1-((2-(azetidin-1-yl)pyrimidin-5-yl)methyl)-1H-pyrazol-4-yl)-6-(3-chloro-6-(difluoromethyl)-2-fluorophenyl)pyrazine-2-carboxamide]	40.5

Source: patent US20230416227A1, “PLASMA KALLIKREIN INHIBITORS” (Merck Sharp & Dohme LLC, priority 2020, published 2023)
